Assay results: patent US12529108B2, “Compositions, methods and kits for characterizing and screening for small cell ovarian carcinoma” (THE TRANSLATIONAL GENOMICS RESEARCH INSTITUTE, priority 2014, dated 2026)

How the values were obtained:
[1] = tested on: SMARCA4/A2 negative SCCOHT cell lines BIN67 and SCCOHT1; assay: High-throughput screen of epigenetic agents, cell viability (CellTiter Glo); type: cell-based, human; conditions: 3-fold 20-point dilution series, viability 3 days after treatment (FIG. 21)
Method: FIG. 21 depicts SCCOHT sensitivity to epigenetic agents. Cells plated at 1,000 cells/well in a 384-well plate were treated with indicated agents using a serial 3-fold 20-point dilution series. Cell viability was measured 3 days after treatment using CellTiter Glo. Surviving cells were measured and normalized to DMSO-treated cells and IC50s calculated by curve-fitting.
Thus, as in MRTs, targeting epigenetic modifications may have therapeutic potential in SCCOHT. To evaluate the activity of a panel of epigenetic drugs in SCCOHT we performed high-throughput screening in the SMARCA4/A2 negative SCCOHT cell lines BIN67 and SCCOHT1. Effects of epigenetic modifiers from all main classes of epigenetic agents—modifiers of acetylated histones as well as inhibitors of DNA methylation, histone methyltransferases and HDACs—are shown in FIG. 21. BIN67 and SCCOHT1 cells are […] sensitive to many of these agents. […] We have found HDAC2 to be overexpressed in most SCCOHTs including these cell lines.

[2] = tested on: BIN67; assay: Pilot compound screen (LOPAC and Prestwick libraries), cell viability (CellTiter Glo); type: cell-based, human; conditions: 5 μM and 10 μM; viability at 72 hours post-treatment; shared hits from HepG2 counterscreen filtered out
Text: The BIN67 cell line has been characterized for optimal growth conditions, doubling time, cell seeding density, FBS concentration, siRNA transfection conditions (transfection reagent and lipid-to-siRNA ratio to achieve transfection efficiency of 95% or higher), and DMSO tolerance. We have also banked large numbers of BIN67 cells from the same passage to facilitate future screening. Furthermore, we have performed pilot compound and RNAi screens on this cell line.
In BIN67 we screened the LOPAC and Prestwick chemical libraries, diverse libraries of small molecules with good bioavailability and toxicity profiles. These libraries contain 2,400 drugs with subsets of FDA-approved drugs and pharmacologically active compounds. We completed 2 runs in BIN67 with duplicates at concentrations of 5 μM and 10 μM and measured cell viability at 72 hours post-treatment with CellTiter Glo (Promega). The high quality screen was exceeded NIH standards with covariance <5% and Z′-factor 0.83-0.91. […] Notable classes of lead compounds enriched in these hits included 9 cardiac glycosides, 6 tubulin polymerization inhibitors, 2 topoisomerase II inhibitors, and 2 Src/FGFR family kinase inhibitors. In particular, the tubulin inhibitors vincristine and […] are currently used clinically for SCCOHT patients. This serves as a positive confirmation for the robustness and reliability of our screen.

[3] = tested on: SCCOHT cell lines; assay: FGFR compounds profiling in a drug dose-dependent manner, cell viability; type: cell-based; conditions: Homo sapiens; both SCCOHT cell lines (FIG. 22B)
Method: FIGS. 22A and 22B show the characterization of FGFR and MERTK inhibition in BIN67 cell line. […] Four unique sequences per target were tested; GFP sequence is used as a negative scramble control. Cell viability was measured using CellTiter Glo.
Our finding of FGFRs as synthetic lethal targets, in both our HT-RNAi and compound pilot screens, in SCCOHT is novel. […] As we also identified FGFR inhibitors in our pilot compound screen, we further tested 8 FGFR inhibitors in vitro.

[4] = tested on: SMARCA2 protein; assay: SMARCA2 protein level by Western blotting after HDAC inhibitor treatment; type: cell-based, human; conditions: BIN67 and SCCOHT1 cells; Western blotting (FIG. 18B)
Text: FIGS. 18A-18D depict characterization of SMARCA4/A2 expression in SCCOHT cell lines. […] FIGS. 18C and 18D show Lentivirus-based re-expression of SMARCA4/A2 in BIN67 cells inhibits cell growth.
To understand the roles of these two mutually exclusive ATPases in SCCOHT etiology, we will elucidate the epigenetic consequences of re-expression of one or both SWI/SNF complex ATPases in SCCOHTs.

C/C=C1\NC(=O)[C@H]2CSSCC/C=C/[C@H](CC(=O)N[C@H](C(C)C)C(=O)N2)OC(=O)[C@H](C(C)C)NC1=O [Rombidepsin, Romidepsin]
sensitivity of SCCOHT cells to epigenetic agents [1]: most sensitive

COc1cc([C@@H]2c3cc4c(cc3[C@@H](O[C@@H]3O[C@@H]5CO[C@@H](C)O[C@H]5[C@H](O)[C@H]3O)[C@H]3COC(=O)[C@H]23)OCO4)cc(OC)c1O [etoposide]
hypersensitivity (screen hit) of BIN67 [2]: hypersensitivity

Cc1ccc(C(=O)Nc2ccc(CN3CCN(C)CC3)c(C(F)(F)F)c2)cc1C#Cc1cnc2cccnn12 [ponatinib]
IC50 [3]: 0.005 to 0.333 µM

CC(/C=C/C(=O)NO)=C\[C@@H](C)C(=O)c1ccc(N(C)C)cc1 [trichostatin A]
upregulation of SMARCA2 protein [4]: dose-dependent upregulation

CC[C@]1(O)C[C@H]2CN(CCc3c([nH]c4ccccc34)[C@@](C(=O)OC)(c3cc4c(cc3OC)N(C=O)[C@H]3[C@@](O)(C(=O)OC)[C@H](OC(C)=O)[C@]5(CC)C=CCN6CC[C@]43[C@@H]65)C2)C1 [vincristine]
hypersensitivity (screen hit) of BIN67 [2]: hypersensitivity
